Measured values as given in paper PMC4448988 (Pharmacology Research & Perspectives, 2015).

Key:
[1] = system: ED-71 O-dehydroxypropylation activity in human small intestine microsomes; type: in vitro ADME; settings: 1 μmol/L ketoconazole
human CYP24A1 = human CYP24A1 (Homo sapiens, UniProt Q07973); type: in vitro ADME; settings: pH 7.4

Relative kcat/Km (human CYP24A1)	SMILES	ED-71 O-dehydroxypropylation activity reduced to (remaining activity) [1]
	CC(=O)N1CCN(c2ccc(OCC3COC(Cn4ccnc4)(c4ccc(Cl)cc4Cl)O3)cc2)CC1 (centres unmarked) [ketoconazole]	37%
1	C=C1/C(=C\C=C2/CCC[C@]3(C)[C@@H]([C@H](C)CCCC(C)(C)O)CC[C@@H]23)C[C@@H](O)C[C@@H]1O [1α,25(OH)2D3, 1α,25-dihydroxyvitamin D3]	
